Data as given in PubChem BioAssay AID256 (DTP/NCI, 2004).
“And” between values parts separate entries of the source, which are not always exact repeats. Equal entries are not always repeated. Inconclusive results and toxic doses are left out. The calls were made as follows: active = survival T/C of 150% or more; inactive = T/C below 125% in these data.

Test system: CD2F1 mice, L1210 leukemia ip, survival T/C
Test: NCI In Vivo Anticancer Drug Screen. Data for tumor model L1210 Leukemia (intraperitoneal) in CD2F1 (CDF1) mice
Conditions: higher = longer survival
Outline: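 Activity against a transplanted murine tumor was judged by comparing the compound group with a vehicle group. The outcome in the treated animals was divided by that in the controls.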

[1] = endpoint: mean survival time, dose: 100.0 mg/kg/injection, schedule: Q01DX001 (ip), vehicle: saline with Tween-80
[2] = endpoint: mean survival time, dose: 200.0 mg/kg/injection, schedule: Q01DX001 (ip), vehicle: saline with Tween-80
[3] = endpoint: mean survival time, dose: 400.0 mg/kg/injection, schedule: Q01DX001 (ip), vehicle: saline with Tween-80
[4] = endpoint: mean survival time, dose: 100.0 mg/kg/injection, schedule: Q01DX009 (ip), vehicle: saline with Tween-80
[5] = endpoint: mean survival time, dose: 200.0 mg/kg/injection, schedule: Q01DX009 (ip), vehicle: saline with Tween-80
[6] = endpoint: mean survival time, dose: 400.0 mg/kg/injection, schedule: Q01DX009 (ip), vehicle: saline with Tween-80
[7] = endpoint: mean survival time, dose: 50.0 mg/kg/injection, schedule: Q01DX009 (ip), vehicle: saline with Tween-80

Measured: T/C

CC/C(=C(\c1ccccc1)c1ccc(OCCN(C)C)cc1)c1ccccc1
inactive: endpoint: median survival time, dose: 3.12 mg/kg/injection, schedule: Q01DX009 (ip), vehicle: suspension in saline 101 % of control | endpoint: median survival time, dose: 6.25 mg/kg/injection, schedule: Q01DX009 (ip), vehicle: suspension in saline 101 % of control | endpoint: median survival time, dose: 12.5 mg/kg/injection, schedule: Q01DX009 (ip), vehicle: suspension in saline 100 % of control | endpoint: median survival time, dose: 25.0 mg/kg/injection, schedule: Q01DX009 (ip), vehicle: saline with Tween-80 100 % of control | endpoint: median survival time, dose: 25.0 mg/kg/injection, schedule: Q01DX009 (ip), vehicle: suspension in saline 97 % of control | endpoint: median survival time, dose: 50.0 mg/kg/injection, schedule: Q01DX009 (ip), vehicle: saline with Tween-80 107 % of control

O=C(COc1cccc(Cl)c1)NCc1ccccc1NC(=O)c1ccc(S(=O)(=O)F)cc1
inactive: [1] 91 % of control | [2] 95 % of control | [3] 91 % of control

CC(=O)/C=C(\C)OC1CCCCC1
inactive: endpoint: mean survival time, dose: 100.0 mg/kg/injection, schedule: Q01DX009 (ip), vehicle: saline 98 % of control | endpoint: mean survival time, dose: 200.0 mg/kg/injection, schedule: Q01DX009 (ip), vehicle: saline 93 % of control

COC(=O)CC[S+](C)CCC(=O)OC
inactive: endpoint: mean survival time, dose: 7.5 mg/kg/injection, schedule: Q01DX009 (ip), vehicle: saline 94 % of control | endpoint: mean survival time, dose: 15.0 mg/kg/injection, schedule: Q01DX009 (ip), vehicle: saline 98 % of control | endpoint: mean survival time, dose: 30.0 mg/kg/injection, schedule: Q01DX009 (ip), vehicle: saline 90 % of control

Cc1cccc(C)c1N
inactive: [1] 96 % of control | [2] 94 % of control | [3] 91 % of control

COC(=O)C(CCl)NC(C)=O (stereo not given)
inactive: [4] 96 % of control and 101 % of control | [5] 96 % of control and 102 % of control | [6] 108 % of control and 98 % of control

CCN(CC)CCCN(CC(=O)O)CC(=O)O
inactive: endpoint: mean survival time, dose: 100.0 mg/kg/injection, schedule: Q01DX001 (ip), vehicle: saline 103 % of control

COc1cc(OC)c(OC)cc1/C=C\c1ccnc2ccccc12
inactive: endpoint: mean survival time, dose: 12.5 mg/kg/injection, schedule: Q01DX009 (ip), vehicle: Klucel (hydroxypropylcellulose) (HPC) 96 % of control | endpoint: mean survival time, dose: 25.0 mg/kg/injection, schedule: Q01DX009 (ip), vehicle: Klucel (hydroxypropylcellulose) (HPC) 95 % of control | endpoint: mean survival time, dose: 50.0 mg/kg/injection, schedule: Q01DX009 (ip), vehicle: Klucel (hydroxypropylcellulose) (HPC) 98 % of control | endpoint: mean survival time, dose: 100.0 mg/kg/injection, schedule: Q01DX009 (ip), vehicle: Klucel (hydroxypropylcellulose) (HPC) 102 % of control | endpoint: mean survival time, dose: 200.0 mg/kg/injection, schedule: Q01DX009 (ip), vehicle: Klucel (hydroxypropylcellulose) (HPC) 112 % of control | endpoint: mean survival time, dose: 400.0 mg/kg/injection, schedule: Q01DX009 (ip), vehicle: Klucel (hydroxypropylcellulose) (HPC) 110 % of control

Cc1cc(OCCOC(=O)Nc2c(Cl)cccc2Cl)cc(C)c1Cl
inactive: [7] 92 % of control | [4] 100 % of control | [5] 107 % of control

O=C1CCc2cccc(O)c21
inactive: [4] 98 % of control | endpoint: mean survival time, dose: 100.0 mg/kg/injection, schedule: Q04DX003 (ip), vehicle: saline with Tween-80 101 % of control | [5] 93 % of control | endpoint: mean survival time, dose: 200.0 mg/kg/injection, schedule: Q04DX003 (ip), vehicle: saline with Tween-80 97 % of control | [6] 95 % of control | endpoint: mean survival time, dose: 400.0 mg/kg/injection, schedule: Q04DX003 (ip), vehicle: saline with Tween-80 108 % of control

CC(=O)Nc1cc2c3c(c1)CCN3CCC2
inactive: endpoint: mean survival time, dose: 3.13 mg/kg/injection, schedule: Q01DX001 (ip), vehicle: saline 100 % of control | endpoint: mean survival time, dose: 6.25 mg/kg/injection, schedule: Q01DX001 (ip), vehicle: saline 113 % of control | endpoint: mean survival time, dose: 12.5 mg/kg/injection, schedule: Q01DX001 (ip), vehicle: saline 112 % of control

C(=N/N=C/c1ccsc1)/c1ccsc1
inactive: endpoint: median survival time, dose: 50.0 mg/kg/injection, schedule: Q04DX002 (ip), vehicle: saline with Tween-80 90 % of control | endpoint: median survival time, dose: 100.0 mg/kg/injection, schedule: Q04DX002 (ip), vehicle: saline with Tween-80 90 % of control | endpoint: median survival time, dose: 200.0 mg/kg/injection, schedule: Q04DX002 (ip), vehicle: saline with Tween-80 90 % of control | endpoint: median survival time, dose: 400.0 mg/kg/injection, schedule: Q04DX002 (ip), vehicle: saline with Tween-80 90 % of control

O=C(O)c1cccnc1[N+](=O)[O-]
inactive: [7] 98 % of control | [1] 93 % of control | [4] 94 % of control | [2] 93 % of control | [5] 96 % of control

C=CCNC(N)=O
inactive: endpoint: mean survival time, dose: 100.0 mg/kg/injection, schedule: Q04DX003 (ip), vehicle: saline 94 % of control | endpoint: mean survival time, dose: 200.0 mg/kg/injection, schedule: Q04DX003 (ip), vehicle: saline 93 % of control
